# Columns and labels:
# [1] = target: CDK6/D3 (Homo sapiens, UniProt Q00534); assay: ADP Glo Kinase assay CDK6/D3; type: biochemical; conditions: CDK6D3; compound at 10 μM; read-out: residual activity (%) at 10 μM CDK6D3
# In short: (§1)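 Compounds tested at 10 concentrations (10 μM to 0.5 nM, 1:3 steps) against CDK4/D1 or CDK6/D3, RB-CTF substrate, Tris pH 7.5 buffer with MgCl2, DTT and BSA.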
# [2] = target: T1, CDKs and other kinases (Homo sapiens, UniProt P24941); assay: Radiometric kinase assay (Eurofins Pharma Discovery or Reaction Biology Corporation Kinase Profiler); type: biochemical; conditions: CDK2A; for remaining activity at 10 µM: compound at 10 μM, read-out: residual activity (%) at 10 μM CDK2A; for Ki: read-out: CDK inhibition, Ki (μM) CDK2A
# T1 construct: other: CDK2A; residual activity (%) at 10 μM CDK2A; compound at 10 μM
# In short: (§2)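 Other CDKs and further kinases were profiled externally by radiometric assay. In-house ADP Glo assays covered CDK4/D1 and CDK6/D3 (RB-CTF substrate, pH 7.5 Tris buffer with MgCl2, DTT, BSA) and CDK9/T1 (RBER-IRStide substrate), 40 min at 37° C.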
# [3] = target: T2, CDKs and other kinases (Homo sapiens, UniProt P06493); assay: as above; type: biochemical; conditions: CDK1B; for remaining activity at 10 µM: compound at 10 μM, read-out: residual activity (%) at 10 μM CDK1B; for Ki: read-out: CDK inhibition, Ki (μM) CDK1B
# T2 construct: other: CDK1B; residual activity (%) at 10 μM CDK1B; compound at 10 μM
# In short: as §2
# [4] = target: T3, CDKs and other kinases (Homo sapiens, UniProt P50613); assay: as above; type: biochemical; conditions: CDK7H; for remaining activity at 10 µM: compound at 10 μM, read-out: residual activity (%) at 10 μM CDK7H; for Ki: read-out: CDK inhibition, Ki (μM) CDK7H
# T3 construct: other: CDK7H; residual activity (%) at 10 μM CDK7H; compound at 10 μM
# In short: as §2
# [5] = target: CDK4/D1 (Homo sapiens, UniProt P11802); assay: ADP Glo Kinase assay CDK4/D1; type: biochemical; conditions: CDK4D1; for remaining activity at 10 µM: compound at 10 μM, read-out: residual activity (%) at 10 μM CDK4D1
# In short: as §1
# [6] = target: CDK9/T1 (Homo sapiens, UniProt P50750); assay: ADP Glo Kinase assay CDK9/T1; type: biochemical; conditions: CDK9T1; read-out: CDK inhibition, Ki (μM) CDK9T1
# In short: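 ADP Glo luminescence, in-house: CDK4/D1, CDK6/D3 on RB-CTF substrate (Tris pH 7.5, MgCl2, DTT, BSA); CDK9/T1 on RBER-IRStide. Reaction 40 min, 37° C after ATP addition. 10-point 1:3 series, 10 μM to 0.5 nM. IC50 by 4-parameter logistic; Ki derived using ATP Km.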
# [7] = system: leukemia cell lines; assay: Resazurin cell viability assay on leukemia cell lines (72 h growth inhibition, GI50); type: cell-based; conditions: Homo sapiens, MV4-11 cells
# In short: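 GI50 values from non-linear regression of growth inhibition; read-out was MTT for solid tumour cells, resazurin for leukaemia cells.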
# T2 sequence (P06493 whole entry): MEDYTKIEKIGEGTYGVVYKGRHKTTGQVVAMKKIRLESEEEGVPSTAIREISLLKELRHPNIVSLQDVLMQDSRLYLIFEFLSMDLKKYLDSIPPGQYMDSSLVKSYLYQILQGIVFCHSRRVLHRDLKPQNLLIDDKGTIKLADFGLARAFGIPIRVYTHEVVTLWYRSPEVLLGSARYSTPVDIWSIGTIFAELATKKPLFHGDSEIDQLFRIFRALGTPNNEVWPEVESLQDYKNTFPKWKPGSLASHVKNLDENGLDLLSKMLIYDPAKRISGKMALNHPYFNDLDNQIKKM
# Chain of CDK4/D1 (P11802 whole entry): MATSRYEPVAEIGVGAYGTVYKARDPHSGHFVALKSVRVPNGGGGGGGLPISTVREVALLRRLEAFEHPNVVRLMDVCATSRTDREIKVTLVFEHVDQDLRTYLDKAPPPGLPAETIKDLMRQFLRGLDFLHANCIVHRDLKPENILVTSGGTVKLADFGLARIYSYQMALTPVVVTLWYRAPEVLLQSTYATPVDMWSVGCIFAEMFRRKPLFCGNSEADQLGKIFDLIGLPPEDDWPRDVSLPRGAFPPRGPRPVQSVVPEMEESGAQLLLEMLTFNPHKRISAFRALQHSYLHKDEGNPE
# Chain of CDK4/D1 (P24385 whole entry partner): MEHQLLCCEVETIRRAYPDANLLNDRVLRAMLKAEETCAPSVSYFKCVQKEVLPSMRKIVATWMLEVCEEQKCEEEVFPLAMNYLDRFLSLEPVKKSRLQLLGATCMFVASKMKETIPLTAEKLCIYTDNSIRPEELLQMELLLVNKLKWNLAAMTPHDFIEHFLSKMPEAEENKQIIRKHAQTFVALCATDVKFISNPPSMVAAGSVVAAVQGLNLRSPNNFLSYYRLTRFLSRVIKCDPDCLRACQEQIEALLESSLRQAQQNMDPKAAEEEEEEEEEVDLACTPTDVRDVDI
# Chain of CDK9/T1 (P50750 whole entry): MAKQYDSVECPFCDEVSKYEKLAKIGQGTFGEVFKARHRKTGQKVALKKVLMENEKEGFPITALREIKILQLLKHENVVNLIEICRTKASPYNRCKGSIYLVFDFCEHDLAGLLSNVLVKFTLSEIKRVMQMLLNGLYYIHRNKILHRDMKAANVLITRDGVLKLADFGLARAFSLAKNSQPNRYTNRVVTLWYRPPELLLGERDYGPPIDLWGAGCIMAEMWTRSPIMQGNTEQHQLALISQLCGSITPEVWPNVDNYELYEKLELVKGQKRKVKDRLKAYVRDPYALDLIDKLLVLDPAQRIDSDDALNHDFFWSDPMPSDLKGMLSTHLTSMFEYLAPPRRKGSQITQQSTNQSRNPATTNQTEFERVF
# Chain of CDK9/T1 (O60563 whole entry partner): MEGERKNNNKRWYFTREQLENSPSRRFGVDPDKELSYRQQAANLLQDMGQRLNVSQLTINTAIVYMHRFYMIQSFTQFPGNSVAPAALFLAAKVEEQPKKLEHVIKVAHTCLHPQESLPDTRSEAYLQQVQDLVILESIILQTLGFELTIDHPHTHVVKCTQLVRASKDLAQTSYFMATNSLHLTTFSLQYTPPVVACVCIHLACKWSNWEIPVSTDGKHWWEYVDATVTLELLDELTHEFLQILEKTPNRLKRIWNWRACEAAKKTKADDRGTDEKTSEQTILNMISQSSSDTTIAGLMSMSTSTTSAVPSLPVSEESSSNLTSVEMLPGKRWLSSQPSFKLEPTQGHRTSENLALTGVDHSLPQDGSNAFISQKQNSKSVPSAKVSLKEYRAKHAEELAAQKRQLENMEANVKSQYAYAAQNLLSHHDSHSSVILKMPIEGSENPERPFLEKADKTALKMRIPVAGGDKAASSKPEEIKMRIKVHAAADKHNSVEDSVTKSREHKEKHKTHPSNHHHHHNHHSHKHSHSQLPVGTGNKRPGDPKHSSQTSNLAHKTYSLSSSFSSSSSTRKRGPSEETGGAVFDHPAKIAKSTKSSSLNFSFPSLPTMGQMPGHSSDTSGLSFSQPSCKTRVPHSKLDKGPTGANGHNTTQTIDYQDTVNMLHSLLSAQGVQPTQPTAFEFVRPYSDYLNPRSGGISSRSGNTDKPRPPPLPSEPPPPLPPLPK
# Chain of CDK6/D3 (Q00534 whole entry): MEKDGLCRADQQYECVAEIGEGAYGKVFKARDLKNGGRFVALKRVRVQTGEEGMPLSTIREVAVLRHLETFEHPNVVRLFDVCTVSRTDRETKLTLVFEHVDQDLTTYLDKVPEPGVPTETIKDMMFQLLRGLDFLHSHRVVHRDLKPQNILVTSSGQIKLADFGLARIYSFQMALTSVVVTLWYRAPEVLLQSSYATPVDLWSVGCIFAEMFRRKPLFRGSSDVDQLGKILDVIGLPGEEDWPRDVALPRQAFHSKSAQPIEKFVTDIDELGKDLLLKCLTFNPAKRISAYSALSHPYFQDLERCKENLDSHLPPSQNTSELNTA
# Chain of CDK6/D3 (P30281 whole entry partner): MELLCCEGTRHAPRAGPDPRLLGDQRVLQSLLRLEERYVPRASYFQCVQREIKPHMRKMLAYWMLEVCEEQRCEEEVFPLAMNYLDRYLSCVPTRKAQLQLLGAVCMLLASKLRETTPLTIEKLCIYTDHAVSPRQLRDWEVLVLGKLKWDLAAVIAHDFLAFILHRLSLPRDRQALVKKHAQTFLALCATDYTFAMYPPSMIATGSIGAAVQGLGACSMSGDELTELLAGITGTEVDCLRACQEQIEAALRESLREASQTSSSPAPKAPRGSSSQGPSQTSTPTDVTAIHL
# T3 sequence (P50613 whole entry): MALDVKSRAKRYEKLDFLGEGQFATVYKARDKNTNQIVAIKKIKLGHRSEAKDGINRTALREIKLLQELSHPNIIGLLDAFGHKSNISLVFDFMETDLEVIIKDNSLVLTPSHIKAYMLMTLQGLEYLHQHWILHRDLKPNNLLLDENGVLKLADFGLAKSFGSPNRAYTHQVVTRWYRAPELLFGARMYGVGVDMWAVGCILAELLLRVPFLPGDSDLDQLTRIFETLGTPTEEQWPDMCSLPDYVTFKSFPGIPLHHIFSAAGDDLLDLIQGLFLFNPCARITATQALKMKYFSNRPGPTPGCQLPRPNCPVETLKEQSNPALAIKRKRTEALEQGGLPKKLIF
remaining activity at 10 µM [1],remaining activity at 10 µM [2],remaining activity at 10 µM [3],remaining activity at 10 µM [4],remaining activity at 10 µM [5],Ki [6],GI50 [7],Ki [4],Ki [2],Ki [3],residual activity at 10 µM [5],Structure (SMILES)
1%,0%,0%,3%,0%,0.004 µM,< 0.001 µM,,,,,"N[C@H]1CC[C@H](Nc2ncc(F)c(-c3cnc4cc(Nc5cccnc5)ccn34)n2)CC1 [Compound 46, (1r,4r)-N^1-(5-Fluoro-4-(7-(pyridin-3-ylamino)imidazo [1,2-a]pyridin-3-yl)pyrimidin-2-yl)cyclohexane-1,4-diamine]"
16%,2%,5%,,4%,0.004 µM,0.003 ± 0.001 µM,0.075 µM,,,,"N[C@H]1CC[C@H](Nc2ncc(F)c(-c3cnc4ccc(-c5ccc(CN6CCOCC6)cc5)cn34)n2)CC1 [Compound 47, (1r,4r)-N^1-(5-Fluoro-4-(6-(4-(morpholinomethyl)phenyl)imidazo[1,2-a]pyridin-3-yl)pyrimidin-2-yl)cyclohexane-1,4-diamine]"
45%,3%,13%,8%,4%,0.004 µM,0.002 µM,,,,,"CN(C)S(=O)(=O)c1ccc(-c2ccc3ncc(-c4nc(N[C@H]5CC[C@H](N)CC5)ncc4F)n3c2)cc1 [Compound 48, 4-(3-(2-(((1r,4r)-4-Aminocyclohexyl)amino)-5-fluoropyrimidin-4-yl)imidazo[1,2-a]pyridin-6-yl)-N,N-dimethylbenzenesulfonamide]"
22%,4%,4%,6%,0%,0.006 µM,0.001 µM,,,,,"N[C@H]1CC[C@H](Nc2ncc(F)c(-c3cnc4ccc(NC(=O)c5ccc(F)cc5)cn34)n2)CC1 [Compound 51, N-(3-(2-(((1r,4r)-4-Aminocyclohexyl)amino)-5-fluoropyrimidin-4-yl)imidazo[1,2-a]pyridin-6-yl)-4-fluorobenzamide]"
21%,7%,6%,6%,4%,0.013 µM,0.008 ± 0.003 µM,,,,,"N[C@H]1CC[C@H](Nc2ncc(F)c(-c3cnc4ccc(NC(=O)Cc5ccccc5)cn34)n2)CC1 [Compound 52, N-(3-(2-(((1r,4r)-4-Aminocyclohexyl)amino)-5-fluoropyrimidin-4-yl)imidazo[1,2-a]pyridin-6-yl)-2-phenylacetamide]"
0%,3%,18%,5%,0%,0.049 µM,0.002 ± 0.001 µM,,,,,"Cc1cnc(N[C@H]2CC[C@H](N)CC2)nc1-c1cnc2cc(-c3ccccc3)ccn12 [Compound 53, (1r,4r)-N^1-(5-Methyl-4-(7-phenylimidazo[1,2-a]pyridin-3-yl)pyrimidin-2-yl)cyclohexane-1,4-diamine]"
0%,5%,29%,6%,0%,0.11 µM,0.018 ± 0.004 µM,,,,,"Cc1cnc(N[C@H]2CC[C@H](N)CC2)nc1-c1cnc2cc(-c3cccnc3)ccn12 [Compound 54, (1r,4r)-N^1-(5-Methyl-4-(7-(pyridin-3-yl)imidazo[1,2-a]pyridin-3-yl)pyrimidin-2-yl)cyclohexane-1,4-diamine]"
2%,5%,24%,8%,5%,0.069 µM,0.558 ± 0.13 µM,,,,,"Cc1cnc(N[C@H]2CC[C@H](N)CC2)nc1-c1cnc2cc(Nc3cccnc3)ccn12 [Compound 55, (1r,4r)-N^1-(5-Methyl-4-(7-(pyridin-3-ylamino)imidazo [1,2-a]pyridin-3-yl)pyrimidin-2-yl)cyclohexane-1,4-diamine]"
39%,31%,47%,17%,45%,0.069 µM,0.067 ± 0.014 µM,,,,,"COc1cccc(-c2ccc3ncc(-c4nc(N[C@H]5CC[C@H](N)CC5)ncc4C)n3c2)c1 [Compound 57, (1r,4r)-N^1-(4-(6-(3-Methoxyphenyl)imidazo[1,2-a]pyridin-3-yl)-5-methylpyrimidin-2-yl)cyclohexane-1,4-diamine]"
86%,70%,71%,22%,69%,0.17 µM,0.177 ± 0.005 µM,,,,,"COc1ccc(-c2ccc3ncc(-c4nc(N[C@H]5CC[C@H](N)CC5)ncc4C)n3c2)cn1 [Compound 58, (1r,4r)-N^1-(4-(6-(6-Methoxypyridin-3-yl)imidazo[1,2-a]pyridin-3-yl)-5-methylpyrimidin-2-yl)cyclohexane-1,4-diamine]"
91%,,,,55%,0.072 µM,0.274 ± 0.064 µM,2.39 µM,0.92 µM,2.68 µM,,"Cc1cnc(N[C@H]2CC[C@H](N)CC2)nc1-c1cnc2ccc(-c3c(C)noc3C)cn12 [Compound 59, (1r,4r)-N^1-(4-(6-(3,5-Dimethylisoxazol-4-yl)imidazo [1,2-a]pyridin-3-yl)-5-methylpyrimidin-2-yl) cyclohexane-1,4-diamine]"
89%,62%,57%,37%,,0.41 µM,0.057 ± 0.006 µM,,,,115%,"Cc1cnc(N[C@H]2CC[C@H](N)CC2)nc1-c1cnc2ccc(-c3ccc(CN4CCOCC4)cc3)cn12 [Compound 60, (1r,4r)-N^1-(5-Methyl-4-(6-(4-(morpholinomethyl)phenyl)imidazo[1,2-a]pyridin-3-yl)pyrimidin-2-yl)cyclohexane-1,4-diamine]"
89%,63%,79%,37%,17%,0.49 µM,0.083 ± 0.035 µM,,,,,"Cc1cnc(N[C@H]2CC[C@H](N)CC2)nc1-c1cnc2ccc(-c3ccc(N4CCOCC4)nc3)cn12 [Compound 61, (1r,4r)-N^1-(5-Methyl-4-(6-(6-morpholinopyridin-3-yl)imidazo[1,2-a]pyridin-3-yl)pyrimidin-2-yl)cyclohexane-1,4-diamine]"
87%,72%,87%,60%,63%,0.497 µM,0.025 ± 0.009 µM,,,,,"Cc1cnc(N[C@H]2CC[C@H](N)CC2)nc1-c1cnc2ccc(-c3ccc(S(=O)(=O)N(C)C)cc3)cn12 [Compound 62, 4-(3-(2-(((1r,4r)-4-Aminocyclohexyl)amino)-5-methylpyrimidin-4-yl)imidazo[1,2-a]pyridin-6-yl)-N,N-dimethylbenzenesulfonamide]"
29%,6%,18%,18%,38%,0.054 µM,0.095 ± 0.031 µM,,,,,"Cc1cnc(N[C@H]2CC[C@H](N)CC2)nc1-c1cnc2ccc(-c3ccoc3)cn12 [Compound 63, (1r,4r)-N^1-(4-(6-(Furan-3-yl)imidazo[1,2-a]pyridin-3-yl)-5-methylpyrimidin-2-yl)cyclohexane-1,4-diamine]"
38%,,,,1%,0.016 µM,0.155 ± 0.054 µM,1.44 µM,0.59 µM,2.37 µM,,"Cc1cncc(Nc2ccc3ncc(-c4nc(N[C@H]5CC[C@H](N)CC5)ncc4C)n3c2)c1 [Compound 64, (1r,4r)-N^1-(5-Methyl-4-(6-((5-methylpyridin-3-yl)amino)imidazo[1,2-a]pyridin-3-yl)pyrimidin-2-yl)cyclohexane-1,4-diamine]"
